60 compounds from PubChem BioAssay AID743107 (Vanderbilt Specialized Chemistry Center, 2013) can be followed below.

The source made the active and inactive calls.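 Rule for the calls: active = compound leaving under 60% of the human M5 receptor calcium signal; inactive = the rest.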

The target of this test is Muscarinic acetylcholine receptor M5 (Homo sapiens) (UniProt P08912). The test is described as follows: human M5 muscarinic receptor antagonists, cell-based, single concentration, CHO-K1 hM5, ACh EC80 (AID 743107). The note with it: CHO-K1 hM5, calcium flux, at 10 µM, stronger effect = lower value.
Sequence of Muscarinic acetylcholine receptor M5 (Homo sapiens) (P08912 whole entry, looked up): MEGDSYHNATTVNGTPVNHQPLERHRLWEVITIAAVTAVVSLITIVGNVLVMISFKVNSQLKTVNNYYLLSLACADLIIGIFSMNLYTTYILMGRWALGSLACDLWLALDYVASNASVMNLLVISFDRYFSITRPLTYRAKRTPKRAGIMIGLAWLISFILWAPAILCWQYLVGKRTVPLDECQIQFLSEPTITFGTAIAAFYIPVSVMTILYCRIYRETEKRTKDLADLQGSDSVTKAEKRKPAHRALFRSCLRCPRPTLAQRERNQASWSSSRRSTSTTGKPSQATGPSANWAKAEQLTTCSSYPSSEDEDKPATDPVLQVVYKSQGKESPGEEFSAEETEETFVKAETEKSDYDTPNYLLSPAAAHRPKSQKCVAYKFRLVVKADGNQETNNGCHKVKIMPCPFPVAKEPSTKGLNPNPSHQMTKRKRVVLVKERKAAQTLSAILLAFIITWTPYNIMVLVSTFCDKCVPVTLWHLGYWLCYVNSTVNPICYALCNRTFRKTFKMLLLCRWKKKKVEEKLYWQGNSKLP

Regarding `CC(c1ccccn1)N(C)C(=O)c1cc(COc2cccc([N+](=O)[O-])c2)on1` (stereo not given), the activity remaining was 73.7% (inactive).
For `COc1cccc(OCc2cc(C(=O)N(C)C(C)c3ccccn3)no2)c1` (stereo not given), the activity remaining is 79.8% (inactive).
`CC(O)c1cccc(OCc2cc(C(=O)N(C)C(C)c3ccccn3)no2)c1` (stereo not given): the activity remaining is 69.3% (inactive).
Take `CCN(C(=O)c1cc(COc2cccc(C(C)=O)c2)on1)C(C)c1ccccn1` (stereo not given): the activity remaining is 14.2%.
With `CC(c1ccccn1)N(C)C(=O)c1cc(COc2ccc(F)c(F)c2)on1` (stereo not given), the activity remaining is 85.3% (inactive).
For the compound `CC(=O)c1cccc(OCc2cc(C(=O)NCc3ccccn3)no2)c1`, the activity remaining was 88.7% (inactive).
Regarding `CC(=O)c1cccc(N(Cc2cc(C(=O)N(C)C(C)c3ccccn3)no2)C(=O)C2CCCC2)c1` (stereo not given), the activity remaining is 66% (inactive).
Take `CC(=O)c1cccc(OCc2cc(C(=O)N(C)C(C)c3ccccc3)no2)c1` (stereo not given): the activity remaining was 52.9%.
Take `CC(c1ccccn1)N(C)C(=O)c1cc(COc2ccc(F)cc2)on1` (stereo not given): the activity remaining is 82.2% (inactive).
In the case of `CC(=O)c1cccc(N(Cc2cc(C(=O)N(C)C(C)c3ccccn3)no2)C(=O)c2cccc(C)c2)c1` (stereo not given), the activity remaining was 65.5% (inactive).
In the case of `COc1ccccc1C(=O)N(Cc1cc(C(=O)N(C)C(C)c2ccccn2)no1)c1cccc(C(C)=O)c1` (stereo not given), the activity remaining was 73.8% (inactive).
Take `COc1ccccc1C(=O)NCc1cc(C(=O)N(C)C(C)c2ccccn2)no1` (stereo not given): the activity remaining was 76.4% (inactive).
As to `CC(c1ccccn1)N(C)C(=O)c1cc(CNS(C)(=O)=O)on1` (stereo not given), the activity remaining is 80.4% (inactive).
The same measure for `CC(=O)c1ccc(OCc2cc(C(=O)N(C)C(C)c3ccccn3)no2)cc1` (stereo not given): 75% (inactive); for `CC(c1ccccn1)N(C)C(=O)c1cc(COc2ccc3c(c2)CCCC3)on1` (stereo not given): 79% (inactive); for `CC(=O)c1cccc(N(Cc2cc(C(=O)N(C)C(C)c3ccccn3)no2)C(=O)c2ccc(C)cc2)c1` (stereo not given): 63.5% (inactive).
Take `CC(=O)c1cccc(NCc2cc(C(=O)N(C)C(C)c3ccccn3)no2)c1` (stereo not given): the activity remaining was 21.4%.
`CC(c1ccccn1)N(C)C(=O)c1cc(CNC(=O)c2cccc(F)c2)on1` (stereo not given): the activity remaining is 78.2% (inactive).
Take `CC(c1ccccn1)N(C)C(=O)c1cc(CNC(=O)c2ccccc2)on1` (stereo not given): the activity remaining was 76.7% (inactive).
Take `CCOc1cccc(OCc2cc(C(=O)N(C)C(C)c3ccccn3)no2)c1` (stereo not given): the activity remaining is 79.2% (inactive).
On to `CC(=O)c1ccccc1OCc1cc(C(=O)N(C)C(C)c2ccccn2)no1` (stereo not given), for which the activity remaining is 80.4% (inactive).
Regarding `CC(Cl)c1cccc(OCc2cc(C(=O)N(C)C(C)c3ccccn3)no2)c1` (stereo not given), the activity remaining is 76.1% (inactive).
`COc1ccc(OCc2cc(C(=O)N(C)C(C)c3ccccn3)no2)cc1` (stereo not given): the activity remaining is 82.8% (inactive).
For `CC(=O)c1cccc(N(Cc2cc(C(=O)N(C)C(C)c3ccccn3)no2)C(=O)C(C)(C)C)c1` (stereo not given), the activity remaining is 73.9% (inactive).
As for `CC(c1ccccn1)N(C)C(=O)c1cc(COc2cccc(CO)c2)on1` (stereo not given), the activity remaining was 75.5% (inactive).
With `CC(=O)c1cccc(N(Cc2cc(C(=O)N(C)C(C)c3ccccn3)no2)C(=O)c2cccc(F)c2)c1` (stereo not given), the activity remaining is 70% (inactive).
In the case of `CC(=O)c1cccc(N(Cc2cc(C(=O)N(C)C(C)c3ccccn3)no2)C(=O)c2ccccc2)c1` (stereo not given), the activity remaining was 69.6% (inactive).
For the compound `CC(=O)c1cccc(N(Cc2cc(C(=O)N(C)C(C)c3ccccn3)no2)S(=O)(=O)c2ccccc2[N+](=O)[O-])c1` (stereo not given), the activity remaining is 60.6% (inactive).
The same measure for `CC(=O)c1cccc(OCc2cc(C(=O)NC(c3ccccn3)C(F)(F)F)no2)c1` (stereo not given): 72.6% (inactive).
Regarding `Cc1cccc(C(=O)NCc2cc(C(=O)N(C)C(C)c3ccccn3)no2)c1` (stereo not given), the activity remaining was 71.5% (inactive).
As to `Cc1ccccc1OCc1cc(C(=O)N(C)C(C)c2ccccn2)no1` (stereo not given), the activity remaining was 79.9% (inactive).
As to `Cc1ccc(OCc2cc(C(=O)N(C)C(C)c3ccccn3)no2)cc1` (stereo not given), the activity remaining was 78.5% (inactive).
For the compound `CC(c1ccccn1)N(C)C(=O)c1cc(COc2cccc(C(F)(F)F)c2)on1` (stereo not given), the activity remaining is 84.1% (inactive).
On to `CC(=O)c1cccc(N(Cc2cc(C(=O)N(C)C(C)c3ccccn3)no2)C(=O)c2ccccc2C)c1` (stereo not given), for which the activity remaining is 67.2% (inactive).
`CC(=O)c1cccc(OCc2cc(C(=O)Nc3ccccn3)no2)c1`: the activity remaining is 77.1% (inactive).
For the compound `CC(=O)c1cccc(N(Cc2cc(C(=O)N(C)C(C)c3ccccn3)no2)C(C)=O)c1` (stereo not given), the activity remaining was 70.4% (inactive).
`CC(=O)c1cccc(OCc2cc(C(=O)N(C)Cc3ccccc3)no2)c1`: the activity remaining is 76.6% (inactive).
The same measure for `CC(c1ccccn1)N(C)C(=O)c1cc(CNC(=O)c2ccccc2F)on1` (stereo not given): 71.8% (inactive); for `Cc1ccccc1C(=O)NCc1cc(C(=O)N(C)C(C)c2ccccn2)no1` (stereo not given): 73.8% (inactive); for `CC(c1ccccn1)N(C)C(=O)c1cc(COc2ccccc2F)on1` (stereo not given): 83.7% (inactive).
On to `CC(=O)c1cccc(OCc2cc(C(=O)N3CCc4ccccc4C3C)no2)c1` (stereo not given), for which the activity remaining was 81.5% (inactive).
As to `CC(c1ccccn1)N(C)C(=O)c1cc(COc2cccc(F)c2)on1` (stereo not given), the activity remaining was 77.1% (inactive).
For `CC(c1ccccn1)N(C)C(=O)c1cc(CNC(=O)C(C)(C)C)on1` (stereo not given), the activity remaining is 77.8% (inactive).
On to `CC(=O)c1cccc(OCc2cc(C(=O)N(C)c3cccc4cccnc34)no2)c1`, for which the activity remaining was 74.2% (inactive).
In the case of `CC(=O)c1cccc(OCc2cc(C(=O)N(C)c3ccccn3)no2)c1`, the activity remaining was 77.8% (inactive).
For `CC(=O)c1cccc(OCc2cc(C(=O)N3CCc4cccnc4C3)no2)c1`, the activity remaining is 86.8% (inactive).
As to `CC(=O)c1cccc(N(Cc2cc(C(=O)N(C)C(C)c3ccccn3)no2)C(=O)c2ccc(F)cc2)c1` (stereo not given), the activity remaining is 71.8% (inactive).
Regarding `CC(c1ccccn1)N(C)C(=O)c1cc(COc2cccc(Oc3ccccc3)c2)on1` (stereo not given), the activity remaining is 83.1% (inactive).
Regarding `CC(c1ccccn1)N(C)C(=O)c1cc(CNC(=O)c2ccc(F)cc2)on1` (stereo not given), the activity remaining is 77% (inactive).
`CC(c1ccccn1)N(C)C(=O)c1cc(COc2ccccc2Cl)on1` (stereo not given): the activity remaining was 77.2% (inactive).
For the compound `CC(=O)NCc1cc(C(=O)N(C)C(C)c2ccccn2)no1` (stereo not given), the activity remaining was 76.8% (inactive).
Consider `CC(=O)c1cccc(OCc2cc(C(=O)N(C)C(C)c3cccnc3)no2)c1` (stereo not given), for which the activity remaining was 78.2% (inactive).
Consider `CC(=O)c1cccc(OCc2cc(C(=O)N(C)C(C)c3ccncc3)no2)c1` (stereo not given), for which the activity remaining is 80.9% (inactive).
As for `CC(c1ccccn1)N(C)C(=O)c1cc(COc2cccc(Br)c2)on1` (stereo not given), the activity remaining is 71.7% (inactive).
Regarding `COC(=O)c1cccc(OCc2cc(C(=O)N(C)C(C)c3ccccn3)no2)c1` (stereo not given), the activity remaining was 67.3% (inactive).
Take `CC(c1ccccn1)N(C)C(=O)c1cc(COc2cccc(C=O)c2)on1` (stereo not given): the activity remaining is 83.1% (inactive).
As to `CC(c1ccccn1)N(C)C(=O)c1cc(COc2ccc(Cl)cc2)on1` (stereo not given), the activity remaining is 84.2% (inactive).
Regarding `Cc1ccc(C(=O)NCc2cc(C(=O)N(C)C(C)c3ccccn3)no2)cc1` (stereo not given), the activity remaining was 75.1% (inactive).
`CC(c1ccccn1)N(C)C(=O)c1cc(CNC(=O)C2CCCC2)on1` (stereo not given): the activity remaining is 77.7% (inactive).
In the case of `CC(=O)c1cccc(N(Cc2cc(C(=O)N(C)C(C)c3ccccn3)no2)C(=O)c2ccccc2F)c1` (stereo not given), the activity remaining was 74.8% (inactive).
